Calls of active or inactive are those of the source. The rule behind the calls is not given here.
Key:
Escherichia coli [1] = experiment: Antimicrobial activity against Escherichia coli assessed as inhibition of growth incubated for 18 hrs by CLSI guidelines based assay; assay type: functional
[2] = tested on: Stenotrophomonas maltophilia; experiment: Antimicrobial activity against Stenotrophomonas maltophilia assessed as inhibition of growth incubated for 18 hrs by CLSI guidelines based assay; assay type: functional
[3] = Hemolytic activity in sheep red blood cells measured after 1 hr incubation; assay type: toxicity, cell-based, Ovis aries, Erythrocyte
[4] = Selectivity index, ratio of HC50 for sheep red blood cells to MIC for Staphylococcus aureus; assay type: toxicity, cell-based, RBC; details: read-out: Selectivity Index
Staphylococcus aureus [5] = experiment: Antibacterial activity against NDM-1 gene-resistant Staphylococcus aureus assessed as inhibition of bacterial growth incubated for 18 hrs by CLSI guidelines based assay; assay type: functional
Staphylococcus aureus [6] = experiment: Antibacterial activity against methicillin-resistant Staphylococcus aureus assessed as inhibition of bacterial growth measured immediately after addition in presence of plasma; assay type: functional, organism-based
Staphylococcus aureus [7] = experiment: Bactericidal activity against early exponential phase Staphylococcus aureus assessed as bacterial killing at 3 ug/ml incubated for 12 hrs by time-kill assay; assay type: functional, organism-based; details: dose 3.0 µg/ml
Escherichia coli [8] = experiment: Bactericidal activity against early exponential phase Escherichia coli assessed as bacterial killing at 3 ug/ml incubated for 6 hrs by time-kill assay; assay type: functional, organism-based; details: dose 3.0 µg/ml
Staphylococcus aureus [9] = experiment: Bactericidal activity against late exponential phase Staphylococcus aureus assessed as bacterial elimination at 8 ug/ml incubated for 6 to 8 hrs by time-kill assay; assay type: functional; details: dose 8 µg/ml; time 6-8 hrs
Staphylococcus aureus [10] = experiment: Anti-biofilim activity against Staphylococcus aureus biofilm assessed bacterial survival rate at 4 ug/ml measured after 24 hrs incubation; assay type: functional
Staphylococcus aureus [11] = experiment: Anti-biofilim activity against Staphylococcus aureus biofilm assessed bacterial survival rate at 32 ug/ml measured after 24 hrs incubation; assay type: functional
Staphylococcus aureus [12] = experiment: Anti-biofilim activity against Staphylococcus aureus biofilm assessed bio-film thickness at 32 ug/ml measured after 24 hrs incubation by SYTO 9 staining based […] laser scanning microscopy (CLSM) (reference value: 29.5 microm); assay type: functional; details: dose 32 µg/ml
Staphylococcus aureus [13] = experiment: Anti-microbial activity against Staphylococcus aureus assessed as bacterial growth inhibition in presence of PE (exogenous bacterial cell membrane component) measured after 18 hrs; assay type: functional, organism-based
Staphylococcus aureus [14] = experiment: Induction of ROS level in Staphylococcus aureus assessed as increase in intracellular ROS level at 0.125 to 0.5 ug/ml measured after 4.5 hrs by ROS-sensitive fluorescent probe DCF-DA staining based assay; assay type: functional, organism-based; details: dose 0.125-0.5 µg/ml
Staphylococcus aureus [15] = experiment: Up-regulation of riboflavin metabolic pathway genes in Staphylococcus aureus at 0.25 ug/ml and incubated for 4 hrs by Transcriptome analysis; assay type: functional, organism-based; details: dose 0.25 µg/ml
Staphylococcus aureus [16] = experiment: Down-regulation of pyrimidine metabolic pathway genes in Staphylococcus aureus at 0.25 ug/ml and incubated for 4 hrs by Transcriptome analysis; assay type: functional, organism-based; details: dose 0.25 µg/ml
Staphylococcus aureus [17] = experiment: Down-regulation of pyridoxal-phosphate-dependent enzyme in Staphylococcus aureus at 0.25 ug/ml and incubated for 4 hrs by Transcriptome analysis; assay type: functional, organism-based; details: dose 0.25 µg/ml
[18] = Toxicity in female SPF Kunming mouse assessed as pathological changes in heart at 200 mg/kg/day, sc measured after 24 hrs by hematoxylin and eosin staining based assay; assay type: organism-based; details: in vivo
[19] = Toxicity in female SPF Kunming mouse assessed as change in HBG count at 20 mg/kg/day, ip measured after 24 hrs; assay type: organism-based; details: in vivo
[20] = Toxicity in female SPF Kunming mouse assessed as change in ALB level at 20 mg/kg/day, ip measured after 24 hrs; assay type: organism-based; details: in vivo
Staphylococcus aureus [21] = experiment: (§1) In vivo antibacterial activity against methicillin-resistant Staphylococcus aureus subcutaneously infected in SPF female Kunming mouse model assessed as bacteria count in dissected mouse at 10 mg/kg/day injected into blister after 6 hrs of infection measured after 6 consecutive treatments; assay type: functional, organism-based
Staphylococcus aureus [22] = experiment: as §1, with “improvement” for “bacteria count”, “inflammatory cell infiltration in skin” for “dissected mouse”, “at 5 to” for “at”, “treatments by H and E staining based assay” for “treatments”; assay type: functional, organism-based; details: dose 5-10 mg/kg/day, route iv

CCCCCCCC[N+](C)(C)CCCCOc1cc(OCCCC[N+](C)(C)CCCCCCCC)cc(OCCCC[N+](C)(C)CCCCCCCC)c1.[Br-].[Br-].[Br-] gave an MIC (Escherichia coli [1]) of 2 µg/mL, an MIC [2] of 2 µg/mL and an HC50 at 1 h [3] greater than 1280 µg/mL. The selectivity ratio [4] was greater than 2560, the MIC90 (Staphylococcus aureus [5]) was 2 µg/mL and the Activity (Staphylococcus aureus [6]) was “Active”. The Activity (Staphylococcus aureus [7]) was “Active”, the Activity (Escherichia coli [8]) was “Active” and the Activity (Staphylococcus aureus [9]) was 100%. It also gave a survival at 4 µg/mL (Staphylococcus aureus [10]) of 2.3%, a survival at 32 µg/mL (Staphylococcus aureus [11]) of 0.002% and an Activity (Staphylococcus aureus [12]) of 14.7 um. For the same compound, the Activity (Staphylococcus aureus [13]) was “Active”, the Activity (Staphylococcus aureus [14]) was “Active” and the Activity (Staphylococcus aureus [15]) was “Active”. For the same compound, the Activity (Staphylococcus aureus [16]) was “Active”, the Activity (Staphylococcus aureus [17]) was “Active” and the Activity [18] was “Non-Toxic”. For the same compound, the Activity [19] was “Non-Toxic”, the Activity [20] was “Non-Toxic” and the Activity (Staphylococcus aureus [21]) was “Active”. For the same compound, the Activity (Staphylococcus aureus [22]) was “Active”.
